Data on 31 molecules can be found in patent US20040014740A1 (priority 2002, published 2004).

The subject of the assay is binding site of a radiolabelled ligand (assay of U.S. Patent No. 5,859,188). The assay can be described thus: binding assay as described in U.S. Patent No. 5,859,188: percent displacement of a radiolabelled ligand. The settings on record: for Testing Result % inhibition at indicated concentration / Testing Result % inhibition at indicated concentration, Test 1: percent displacement of radiolabelled ligand; for Testing Result % inhibition at indicated concentration, Test 2: concentration not given for Test 2. As to the method: Selected compounds were evaluated for their anti-parasitic activity in a binding assay as described in U.S. Patent No. 5,859,188 (Geary, et.al., 1999). Results of the evaluations are given in the following Table wherein % inhibition means percent displacement of a radiolabelled ligand as described.

As to `CCOC(=O)c1c(NC(=O)CN2CCCCC2)sc2c1CCC2` [A, ethyl 2-{[2-(1-piperidinyl)acetyl]amino}-5,6-dihydro-4H-cyclopenta[b]thiophene-3-carboxylate], the “Testing Result % inhibition at indicated concentration” value (3 uM) turned out to be 69% at 3 uM.
On to `CCOC(=O)C1=C(NC(=O)CN2CCCCC2)SC2CCCCCC12` (stereo not shown) [C], for which the “Testing Result % inhibition at indicated concentration, Test 2” value (from here on “Testing Result % inhibition … Test 2”) was 53%. Also, the “Testing Result % inhibition at indicated concentration, Test 1” value (shortened to “Testing Result % inhibition … Test 1”) (25 uM) came to 82%.
Take `CCOC(=O)c1c(NC(=O)CN2CCCCC2)sc2c1CCCC2` [Compound B]: the “Testing Result % inhibition at indicated concentration” value (1 uM) came to 59% at 1 uM.
With `CCOC(=O)C1=C(NC(=O)CN2CCOCC2)SC2CCCCCC12` (stereo not shown) [Compound D], the “Testing Result % inhibition at indicated concentration” value (25 uM) turned out to be 38% at 25 uM.
Consider `CCOC(=O)c1cc(-c2ccsc2)sc1NC(=O)CN1CCCCC1` [aa, ethyl 5-[(piperidin-1-ylacetyl)amino]-2,3′-bithiophene-4-carboxylate], for which the “Testing Result % inhibition … Test 2” value is reported as 37-43%. Further, the “Testing Result % inhibition … Test 1” value (25 uM) was 46-66%.
For `CCOC(=O)c1c(-c2ccsc2)csc1NC(=O)CN1CCCCC1` [bb, ethyl 5-[(piperidin-1-ylacetyl)amino]-3,3′-bithiophene-4-carboxylate] the same measures were 18-38% and 40-63%.
For `CC(C)OC(=O)c1c(NC(=O)CN2CCCCC2)sc2c1CCCC2` [cc, isopropyl 2-[(piperidin-1-ylacetyl)amino]-4,5,6,7-tetrahydro-1-benzothiophene-3-carboxylate], the “Testing Result % inhibition at indicated concentration” value (25 uM) is 34-54% at 25 uM.
On the same count and under the same terms, under `CC(C)OC(=O)c1c(-c2ccc(Cl)c(Cl)c2)csc1NC(=O)CN1CCCCC1` [dd, isopropyl 4-(3,4-dichlorophenyl)-2-[(piperidin-1-ylacetyl)amino]thiophene-3-carboxylate] stands 0-9% at 25 uM.
Regarding `CCOC(=O)c1c(NC(=O)CN2CCCCC2)sc2c1CCS2` [ee, ethyl 2-[(piperidin-1-ylacetyl)amino]-4,5-dihydrothieno[2,3-b]thiophene-3-carboxylate], the “Testing Result % inhibition at indicated concentration” value (25 uM) is given as 61-72% at 25 uM.
The same measure, in the same setting: under `CCOC(=O)c1c(NC(=O)CN2CCC(O)CC2)sc2c1CCCC2` [ff, ethyl 2-{[(4-hydroxypiperidin-1-yl)acetyl]amino}-4,5,6,7-tetrahydro-1-benzothiophene-3-carboxylate] stands 31-34% at 25 uM.
Same read-out and setting: under `CCOC(=O)c1c(NC(=O)CN2CCCC2)sc2c1CCCC2` [g, ethyl 2-[(pyrrolidin-1-ylacetyl)amino]-4,5,6,7-tetrahydro-1-benzothiophene-3-carboxylate] stands 68-75% at 25 uM; under `CCOC(=O)c1c(NC(=O)CN2CCCC(O)C2)sc2c1CCCC2` (stereo not shown) [gg, ethyl 2-{[(3-hydroxypiperidin-1-yl)acetyl]amino}-4,5,6,7-tetrahydro-1-benzothiophene-3-carboxylate], 68-73% at 25 uM; under `CCOC(=O)c1c(NC(=O)CN2CCCCCC2)sc2c1CCCC2` [h, ethyl 2-[(azepan-1-ylacetyl)amino]-4,5,6,7-tetrahydro-1-benzothiophene-3-carboxylate], 46% at 25 uM.
Same read-out and setting: under `CCOC(=O)c1c(NC(=O)CN2CCC2)sc2c1CCCC2` [i, ethyl 2-[(azetidin-1-ylacetyl)amino]-4,5,6,7-tetrahydro-1-benzothiophene-3-carboxylate] stands 28% at 25 uM; under `CCOC(=O)c1c(NC(=O)CN2CCCC2)sc2c1CCC2` [j, ethyl 2-[(pyrrolidin-1-ylacetyl)amino]-5,6-dihydro-4H-cyclopenta[b]thiophene-3-carboxylate], 83-88% at 25 uM.
On to `CCOC(=O)c1c(NC(=O)CN2CCCCCC2)sc2c1CCC2` [k, ethyl 2-[(azepan-1-ylacetyl)amino]-5,6-dihydro-4H-cyclopenta[b]thiophene-3-carboxylate], for which, for the setting “25 uM”, the “Testing Result % inhibition at indicated concentration” value is 77-70% at 25 uM.
On the same count and under the same terms, under `CCOC(=O)c1c(NC(=O)CN2CCCCC2)sc(Cl)c1-c1ccccc1` [l, ethyl 5-chloro-4-phenyl-2-[(piperidin-1-ylacetyl)amino]thiophene-3-carboxylate] stands 35% at 25 uM; under `CCOC(=O)c1c(NC(=O)CN2CCCCC2)sc2c1CCC(c1ccccc1)C2` (stereo not shown) [m, ethyl 6-phenyl-2-[(piperidin-1-ylacetyl)amino]-4,5,6,7-tetrahydro-1-benzothiophene-3-carboxylate], 36% at 25 uM; under `CCOC(=O)c1c(NC(=O)CN2CCCCC2)sc2c1CCC(C(C)(C)C)C2` (stereo not shown) [n, ethyl 6-tert-butyl-2-[(piperidin-1-ylacetyl)amino]-4,5,6,7-tetrahydro-1-benzothiophene-3-carboxylate], 13% at 25 uM.
`CCOC(=O)c1c(NC(=O)C(C)N2CCCCC2)sc2c1CCCC2` (stereo not shown) [o, ethyl 2-[(2-piperidin-1-ylpropanoyl)amino]-4,5,6,7-tetrahydro-1-benzothiophene-3-carboxylate]: the “Testing Result % inhibition … Test 2” value is 38-40%. Besides, the “Testing Result % inhibition … Test 1” value (25 uM) is 46-73%.
For `CCOC(=O)c1c(NC(=O)CN2CCCCC2)sc2c1CCN(C(=O)OCC)C2` [p, diethyl 2-[(piperidin-1-ylacetyl)amino]-4,7-dihydrothieno[2,3-c]pyridine-3,6(5H)-dicarboxylate], in that order: 33-49% and 50-52%.
For `CCOC(=O)c1c(NC(=O)CN2CCCCC2)sc2c1CC(C)CC2` (stereo not shown) [q, ethyl 5-methyl-2-[(piperidin-1-ylacetyl)amino]-4,5,6,7-tetrahydro-1-benzothiophene-3-carboxylate] the same measures were 15-22% and 65-74%.
Turning to `CCOC(=O)c1c(-c2ccc(C)cn2)csc1NC(=O)CN1CCCCC1` [r, ethyl 4-(5-methylpyridin-2-yl)-2-[(piperidin-1-ylacetyl)amino]thiophene-3-carboxylate], the “Testing Result % inhibition … Test 2” value is given as 26%. For the setting “25 uM”, the “Testing Result % inhibition … Test 1” value is given as 42%.
For `CCOC(=O)c1c(NC(=O)CN2CCCCC2)sc2c1CC(C)(CC)OC2` (stereo not shown) [s, ethyl 5-ethyl-5-methyl-2-[(piperidin-1-ylacetyl)amino]-4,7-dihydro-5H-thieno[2,3-c]pyran-3-carboxylate] the same measures were 69-79% and 93-100%.
For `CCOC(=O)c1c(-c2ccco2)csc1NC(=O)CN1CCCCC1` [t, ethyl 4-(2-furyl)-2-[(piperidin-1-ylacetyl)amino]thiophene-3-carboxylate] the same measures were 24-40% and 70-75%.
Take `CCOC(=O)c1c(NC(=O)CN2CCCCC2)sc2c1CCN(Cc1ccccc1)C2` [u, ethyl 6-benzyl-2-[(piperidin-1-ylacetyl)amino]-4,5,6,7-tetrahydrothieno[2,3-c]pyridine-3-carboxylate]: the “Testing Result % inhibition … Test 2” value is given as 0-14%. Also, the “Testing Result % inhibition … Test 1” value (25 uM) is listed as 48-51%.
For `CCOC(=O)c1c(-c2ccncc2)csc1NC(=O)CN1CCCCC1` [v, ethyl 2-[(piperidin-1-ylacetyl)amino]-4-pyridin-4-ylthiophene-3-carboxylate], in that order: 14-17% and 15-43%.
For `CCOC(=O)c1c(C)csc1NC(=O)CN1CCCCC1` [w, ethyl 4-methyl-2-[(piperidin-1-ylacetyl)amino]thiophene-3-carboxylate], in that order: 39-47% and 58-70%.
For `COC(=O)c1c(NC(=O)CN2CCCCC2)sc2c1CCCC2` [x, methyl 2-[(piperidin-1-ylacetyl)amino]-4,5,6,7-tetrahydro-1-benzothiophene-3-carboxylate], in that order: 41-55% and 55-70%.
Regarding `CCCOC(=O)c1c(NC(=O)CN2CCCCC2)sc2c1CCCC2` [y, propyl 2-[(piperidin-1-ylacetyl)amino]-4,5,6,7-tetrahydro-1-benzothiophene-3-carboxylate], the “Testing Result % inhibition … Test 2” value was 33-54%. Further, the “Testing Result % inhibition … Test 1” value (25 uM) is listed as 52-65%.
`CCOC(=O)c1c(-c2ccc(Br)cc2)csc1NC(=O)CN1CCCCC1` [z, ethyl 4-(4-bromophenyl)-2-[(piperidin-1-ylacetyl)amino]thiophene-3-carboxylate]: the “Testing Result % inhibition … Test 2” value was 37-43%. For the same molecule, the “Testing Result % inhibition … Test 1” value (25 uM) is recorded as 44-55%.
